Counter-ions that a name gives are not always drawn.

Test [1] deals with T1, NO synthase (Rattus norvegicus, UniProt P29476). Description: HTS-NOS assay (labelled arginine, filter plate). It counts as biochemical. On the set-up: from tissue; host or cells: rat cerebellum (20,000 g supernatant of homogenate). As to conditions: 10 μm test substance; enzyme from rat cerebellum. The protocol:
This assay enabled the percentage inhibition of NO synthase to be determined by measuring the NOS activity on the action of the active ingredient. NO synthase was mixed with radioactively labelled arginine and the active ingredient under suitable conditions. After terminating the NO-forming reaction at a predetermined time, the amount of unreacted arginine was determined directly or indirectly. Comparison of this amount with the amount of arginine remaining from a mixture of NOS and arginine without the addition of active ingredient but under conditions which were otherwise the same gave the % inhibition of NO synthase by the active ingredient tested. This assay was performed as follows:
(a) Incubation of NO synthase, with labelled arginine as a substrate, in a reaction vessel.
(b) Separation of the labelled arginine from any labelled citrulline which was formed as a product of the enzymatic reaction at a time at which the concentration of citrulline was increasing.
(c) Measuring the amount of arginine separated in each case.
Separation was effected through a filter plate membrane.
This NOS assay was particularly suitable for “High Throughput Screening” (HTS) on microtitration plates (MTPs).
In this HTS-NOS assay, radioactive arginine was used as the substrate. The assay volume can be selected within the range from […] depending on the type of microtitration plate (MTP). Cofactors and coenzymes were added depending on the enzyme source used. Batches were incubated in this microtitration plate (assay MTP) according to step (a) at room temperature, for between 5 and 60 minutes depending on the enzyme activity (units) employed. At the end of the incubation (step (a)) the plate was placed in a cell harvester which was fitted with an MTP comprising a cation exchange membrane filter base (filter MTP). All the batches from the assay MTP were transferred to this filter MTP and were filtered off under suction through a cation exchange filter plate comprising a paper filter containing phosphate groups. […] By means of this procedure, the remaining arginine substrate was bound to the cation exchanger, whilst the enzymatically formed radioactive citrulline was quantitatively removed by washing. After drying the filter MTP and adding a scintillation liquid, the bound arginine was counted in a scintillation counter. An uninhibited NOS reaction was manifested by a low level of radioactivity. An inhibited enzyme reaction meant that the radioactive arginine had not reacted, i.e. the filter contained a high level of radioactivity. […]
The contents of the assay MTP were subsequently transferred by means of a 96-well cell harvester into a 96-well cation exchanger MTP (filter MTP) and was filitered under suction. […] After a holding time of 1 hour, the plate was measured in a βcounter. […]

Test [2] deals with T1, NO synthase. Kind of test: Citrulline assay (Bredt and Snyder). It counts as biochemical. The protocol: This assay was performed as described by D. S. Bredt and S. H. Snyder (Proc. Natl. Acad. Sci. USA (1990), 87, 682-85).

Take `Cc1cc(C)n2c(NC(C)(C)C)c(C3CCCCC3)nc2c1` [Example 5, tert-butyl-(2-cyclohexyl-5,7-dimethyl-imidazo[1,2-a]pyridin-3-yl)-amine]: the inhibition at 10 µM in test [1] is 63%. With `Cc1cc(C)n2c(NC(C)(C)C)c(-c3ccc([N+](=O)[O-])o3)nc2c1` [Example 9], in test [1], the “HTS-NOS assay: %-inhibition (10 μm)” value turned out to be 59%. As for `Cc1ccn2c(NC(C)(C)C)c(-c3ccc(C(=O)O)s3)nc2c1` [Example 17, 5-(3-tert-butylamino-7-methyl-imidazo[1,2-a]pyridin-2-yl)-thiophen-12-carboxylic acid], the “HTS-NOS assay: %-inhibition (10 μm)” value in test [1] came to 61%. In test [2], `Cc1cc(C)n2c(NC(C)(C)C)c(-c3ccco3)nc2c1` [Example 18, tert-butyl-(2-furan-2-yl-5,7-dimethyl-imidazo[1,2-a]pyridin-3-yl)amine hydrochloride] returned an IC50 of 2800 nM. `Cc1ccn2c(NC(C)(C)C)c(-c3ccccc3)nc2c1` [Example 19, tert-butyl-(7-methyl-2-phenylimidazo[1,2-a]pyridin-3-yl)amine hydrochloride]: the 50% inhibitory concentration (IC50) in test [2] amounted to 2400 nM.

Consider `Cc1cc(C)n2c(NC(C)(C)C)c(C)nc2c1` [Example 20, tert-butyl-(2,5,7-trimethyl[1,2-a]pyridin-3-yl)amine hydrochloride], for which the midpoint of inhibition in test [2], the IC50, lay at 9200 nM. As for “[5-(3-tert-butyl-7-methyl-imidazo[1,2-a]pyridin-2-yl)-furan-2-yl]-methanol [Example 10]”, the “HTS-NOS assay: %-inhibition (10 μm)” value in test [1] amounted to 52%.

Values taken from US6703404B2, “Tert -butyl-(7-methyl-imidazol [1,2-a]pyridin-3-yl)-amine derivatives” (Gruenenthal GmbH, priority 1999, dated 2004).
